{"source": "patent US20150105252A1", "about": "“SUBSTITUTED PYRAZOLES AS HERBICIDES” (E I DU PONT DE NEMOURS AND COMPANY, priority 2013, published 2015)", "key": {"barnyardgrass": {"system": "barnyardgrass", "experiment": "Test A preemergence", "type": "in vivo, Echinochloa crus-galli", "settings": "preemergence", "summary_of_the_method": "(§1)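 Ratings express plant response from 0 (no effect) to 100 (complete control), judged visually against untreated controls after approximately 10 days in the greenhouse. Preemergence applications were made as directed soil sprays onto seeded loam–sand mix, and postemergence applications onto 2–10 cm plants at one- to two-leaf stage.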"}, "pigweed [1]": {"system": "pigweed", "experiment": "Test A preemergence", "type": "in vivo, Amaranthus retroflexus", "settings": "preemergence", "summary_of_the_method": "as §1"}, "velvetleaf [2]": {"system": "velvetleaf", "experiment": "Test A preemergence", "type": "in vivo, Abutilon theophrasti", "settings": "preemergence", "summary_of_the_method": "as §1"}, "pigweed [3]": {"system": "pigweed", "experiment": "Test A postemergence", "type": "in vivo, Amaranthus retroflexus", "settings": "Postemergence", "summary_of_the_method": "as §1"}, "velvetleaf [4]": {"system": "velvetleaf", "experiment": "Test A postemergence", "type": "in vivo, Abutilon theophrasti", "settings": "Postemergence", "summary_of_the_method": "as §1"}, "blackgrass": {"system": "blackgrass", "experiment": "Test C preemergence", "type": "in vivo, Alopecurus myosuroides", "settings": "preemergence", "summary_of_the_method": "(§2)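 In this greenhouse assay, seeded soil (loam plus sand) or emerged seedlings in peat-vermiculite medium were treated with formulated compound. Roughly two weeks later (13–15 days), each species was scored visually relative to controls, from 0 for no effect to 100 for complete control.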"}, "wheat": {"system": "wheat", "experiment": "Test C preemergence", "type": "in vivo, Triticum aestivum", "settings": "preemergence", "summary_of_the_method": "as §2"}, "foxtail, giant": {"system": "foxtail, giant", "experiment": "Test C preemergence", "type": "in vivo, Setaria faberii", "settings": "preemergence", "summary_of_the_method": "as §2"}, "johnsongrass [5]": {"system": "johnsongrass", "experiment": "Test C preemergence", "type": "in vivo, Sorghum halepense", "settings": "preemergence", "summary_of_the_method": "as §2"}, "ragweed": {"system": "ragweed", "experiment": "Test C preemergence", "type": "in vivo, Ambrosia elation", "settings": "preemergence", "summary_of_the_method": "as §2"}, "soybean": {"system": "soybean", "experiment": "Test C preemergence", "type": "in vivo, Glycine max", "settings": "preemergence", "summary_of_the_method": "as §2"}, "oilseed rape": {"system": "oilseed rape", "experiment": "Test C preemergence", "type": "in vivo, Brassica napus", "settings": "preemergence", "summary_of_the_method": "as §2"}, "corn": {"system": "corn", "experiment": "Test C postemergence", "type": "in vivo, Zea mays", "summary_of_the_method": "as §2"}, "johnsongrass [6]": {"system": "johnsongrass", "experiment": "Test C postemergence", "type": "in vivo, Sorghum halepense", "summary_of_the_method": "as §2"}, "lambsquarters": {"system": "lambsquarters", "experiment": "Test C postemergence", "type": "in vivo, Chenopodium album", "summary_of_the_method": "as §2"}, "waterhemp": {"system": "waterhemp", "experiment": "Test C postemergence", "type": "in vivo, Amaranthus rudis", "settings": "postemergence", "summary_of_the_method": "as §2"}, "[7]": {"settings": "125 g ai/ha, visual injury approx. 10 days after treatment"}, "[8]": {"settings": "500 g ai/ha, visual injury after approx. 10 days, 0 to 100 scale (0 no effect, 100 complete control)"}, "[9]": {"settings": "125 g ai/ha, 0 to 100 scale, 0 no effect, 100 complete control"}, "[10]": {"settings": "500 g ai/ha, 0 to 100 scale (0 no effect, 100 complete control)"}, "[11]": {"settings": "31 g ai/ha, visual rating, scale 0 to 100 (0 no effect, 100 complete control), 13 to 15 days"}, "[12]": {"settings": "62 g ai/ha, scale 0 to 100 (0 no effect, 100 complete control), 13 to 15 days"}, "[13]": {"settings": "125 g ai/ha, 13 to 15 days, scale 0 to 100, 0 = no effect, 100 = complete control"}, "[14]": {"settings": "250 g ai/ha, scale 0 to 100, 0 is no effect, 100 is complete control"}, "[15]": {"settings": "Postemergence, 31 g ai/ha, visually evaluated after 13 to 15 days"}, "[16]": {"settings": "postemergence, 62 g ai/ha, scale 0 to 100"}, "[17]": {"settings": "postemergence, 250 g ai/ha, scale 0 to 100 (0 no effect, 100 complete control)"}, "[18]": {"settings": "postemergence, 125 g ai/ha, scale 0 to 100, 0 no effect, 100 complete control"}}, "data": [{"smiles": "CCCc1cc(C(=O)NC2CC2)nn1Cc1cc(C(F)(F)F)nn1C", "note": "[Compound 202]", "values": [{"measurement": "Barnyardgrass plant response rating (0 to 100 scale, 0 is no effect, 100 is complete control)", "setting": "barnyardgrass; [7]", "result": 90}, {"measurement": "Barnyardgrass plant response rating", "setting": "barnyardgrass; [8]", "result": 100}, {"measurement": "Pigweed plant response rating (0 to 100 scale)", "setting": "pigweed [1]; [7]", "result": 100}, {"measurement": "Pigweed plant response rating", "setting": "pigweed [1]; [8]", "result": 100}, {"measurement": "Velvetleaf plant response rating (0 to 100 scale)", "setting": "velvetleaf [2]; [7]", "result": 30}, {"measurement": "Velvetleaf plant response rating", "setting": "velvetleaf [2]; [8]", "result": 100}, {"measurement": "Pigweed plant response rating", "setting": "pigweed [3]; [9]", "result": 100}, {"measurement": "Pigweed plant response rating", "setting": "pigweed [3]; [10]", "result": 100}, {"measurement": "Velvetleaf plant response rating", "setting": "velvetleaf [4]; [9]", "result": 70}, {"measurement": "Velvetleaf plant response rating", "setting": "velvetleaf [4]; [10]", "result": 90}, {"measurement": "Blackgrass plant response rating", "setting": "blackgrass; [11]", "result": 10}, {"measurement": "Blackgrass plant response rating", "setting": "blackgrass; [12]", "result": 85}, {"measurement": "Plant response rating, Blackgrass", "setting": "blackgrass; [13]", "result": 90}, {"measurement": "Blackgrass plant response rating", "setting": "blackgrass; [14]", "result": 90}, {"measurement": "Wheat plant response rating", "setting": "wheat; [11]", "result": 0}, {"measurement": "Wheat plant response rating", "setting": "wheat; [12]", "result": 85}, {"measurement": "Plant response rating, Wheat", "setting": "wheat; [13]", "result": 85}, {"measurement": "Wheat plant response rating", "setting": "wheat; [14]", "result": 90}, {"measurement": "Foxtail, Giant plant response rating", "setting": "foxtail, giant; [11]", "result": 100}, {"measurement": "Foxtail, Giant plant response rating", "setting": "foxtail, giant; [12]", "result": 100}, {"measurement": "Plant response rating, Foxtail, Giant", "setting": "foxtail, giant; [13]", "result": 100}, {"measurement": "Foxtail, Giant plant response rating", "setting": "foxtail, giant; [14]", "result": 100}, {"measurement": "Johnsongrass plant response rating", "setting": "johnsongrass [5]; [11]", "result": 50}, {"measurement": "Johnsongrass plant response rating", "setting": "johnsongrass [5]; [12]", "result": 85}, {"measurement": "Plant response rating, Johnsongrass", "setting": "johnsongrass [5]; [13]", "result": 100}, {"measurement": "Johnsongrass plant response rating", "setting": "johnsongrass [5]; [14]", "result": 100}, {"measurement": "Ragweed plant response rating", "setting": "ragweed; [11]", "result": 75}, {"measurement": "Ragweed plant response rating", "setting": "ragweed; [12]", "result": 95}, {"measurement": "Plant response rating, Ragweed", "setting": "ragweed; [13]", "result": 95}, {"measurement": "Ragweed plant response rating", "setting": "ragweed; [14]", "result": 100}, {"measurement": "Soybean plant response rating", "setting": "soybean; [11]", "result": 65}, {"measurement": "Soybean plant response rating", "setting": "soybean; [12]", "result": 70}, {"measurement": "Plant response rating, Soybean", "setting": "soybean; [13]", "result": 85}, {"measurement": "Soybean plant response rating", "setting": "soybean; [14]", "result": 98}, {"measurement": "Oilseed Rape plant response rating", "setting": "oilseed rape; [11]", "result": 100}, {"measurement": "Oilseed Rape plant response rating", "setting": "oilseed rape; [12]", "result": 100}, {"measurement": "Plant response rating, Oilseed Rape", "setting": "oilseed rape; [13]", "result": 100}, {"measurement": "Oilseed Rape plant response rating", "setting": "oilseed rape; [14]", "result": 100}, {"measurement": "Plant response rating (scale of 0 to 100 where 0 is no effect and 100 is complete control), Corn", "setting": "corn; [15]", "result": 5}, {"measurement": "Corn plant response rating", "setting": "corn; [16]", "result": 10}, {"measurement": "Plant response rating, Corn", "setting": "corn; [17]", "result": 25}, {"measurement": "Plant response rating, Corn", "setting": "corn; [18]", "result": 15}, {"measurement": "Plant response rating (scale of 0 to 100 where 0 is no effect and 100 is complete control), Johnsongrass", "setting": "johnsongrass [6]; [15]", "result": 0}, {"measurement": "Johnsongrass plant response rating", "setting": "johnsongrass [6]; [16]", "result": 5}, {"measurement": "Plant response rating, Johnsongrass", "setting": "johnsongrass [6]; [17]", "result": 25}, {"measurement": "Plant response rating, Johnsongrass", "setting": "johnsongrass [6]; [18]", "result": 5}, {"measurement": "Plant response rating (scale of 0 to 100 where 0 is no effect and 100 is complete control), Lambsquarters", "setting": "lambsquarters; [15]", "result": 70}, {"measurement": "Lambsquarters plant response rating", "setting": "lambsquarters; [16]", "result": 80}, {"measurement": "Plant response rating, Lambsquarters", "setting": "lambsquarters; [17]", "result": 90}, {"measurement": "Plant response rating, Lambsquarters", "setting": "lambsquarters; [18]", "result": 85}, {"measurement": "Plant response rating, Waterhemp", "setting": "waterhemp; 250 g ai/ha, scale 0 to 100 (0 no effect, 100 complete control)", "result": 90}, {"measurement": "Waterhemp plant response rating", "setting": "waterhemp; scale 0 to 100", "result": 85}]}]}
